The target of the test is Human V1b receptor (Homo sapiens (Human), UniProt P47901). The experiment in a line: Binding Test for V1b Receptor ([3H]AVP, crude membrane preparation of 293FT cells). Conditions: inhibition of [3H]AVP binding (0.4 to 1 nmol/L), room temperature, 60 minutes. The gist of the method:
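Crude membranes from 293FT cells transiently expressing human V1b, incubated with [3H]AVP (0.4 to 1 nmol/L) and compound (0.01 nmol/L–1 μmol/L final) in Tris pH 7.4 with MgCl2 and 0.1% BSA, 60 min at room temperature. Bound label collected by filtration. Nonspecific binding defined with unlabeled AVP; IC50 from dose-response curve.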

Each structure is given as a SMILES string.

Human V1b receptor, sequence (P47901 whole entry): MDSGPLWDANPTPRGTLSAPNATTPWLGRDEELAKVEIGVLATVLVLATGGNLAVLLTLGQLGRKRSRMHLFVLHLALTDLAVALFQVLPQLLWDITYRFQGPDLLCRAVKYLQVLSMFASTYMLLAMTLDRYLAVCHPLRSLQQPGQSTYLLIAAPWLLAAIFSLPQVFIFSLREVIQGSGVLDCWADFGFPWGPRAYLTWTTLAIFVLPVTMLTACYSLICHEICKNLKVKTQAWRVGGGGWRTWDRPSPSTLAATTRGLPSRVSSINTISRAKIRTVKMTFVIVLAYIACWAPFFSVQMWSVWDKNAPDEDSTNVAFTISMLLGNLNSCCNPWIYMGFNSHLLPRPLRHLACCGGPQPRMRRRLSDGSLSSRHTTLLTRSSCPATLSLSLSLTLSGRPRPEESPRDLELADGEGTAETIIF

For `COc1cc(-c2nc(-c3ccc(CCN4CCOCC4)cc3)cn2CC(=O)NC(C)C)ccn1` [Example A-41, 2-[2-(2-methoxypyridin-4-yl)-4-{4-[2-(morpholin-4-yl)ethyl]phenyl}-1H-imidazol-1-yl]-N-(propan-2-yl)acetamide], the IC50 was in the range of 100 to 1000 nM.
Turning to `CC(C)NC(=O)Cc1nn(-c2ccc(CCN3C4CCC3COC4)cn2)c(=O)n1-c1cccc(Cl)c1` [Example D-02, 2-[4-(3-chlorophenyl)-1-{5-[2-(3-oxa-8-azabicyclo[3.2.1]oct-8-yl)ethyl]pyridin-2-yl}-5-oxo-4,5-dihydro-1H-1,2,4-triazol-3-yl]-N-(propan-2-yl)acetamide], the 50% inhibitory concentration (IC50) was 10 to 100 nM.
`CC(C)NC(=O)Cn1nc(-c2ccc(CN3CCN(C)CC3)cc2)nc1-c1cccc(Cl)c1` [Example B-03, 2-[5-(3-chlorophenyl)-3-{4-[(4-methylpiperazin-1-yl)methyl]phenyl}-1H-1,2,4-triazol-1-yl]-N-(propan-2-yl)acetamide] gave a half-maximal inhibitory concentration (IC50) of 100 to 1000 nM.
Next, `CC(C)(C)NC(=O)Cc1nn(-c2ccc(CCN3C4CCC3COC4)cc2)c(=O)n1-c1ccc(F)c(Cl)c1` [Example D-31, N-tert-butyl-2-[4-(3-chloro-4-fluorophenyl)-1-{4-[2-(3-oxa-8-azabicyclo[3.2.1]oct-8-yl)ethyl]phenyl}-5-oxo-4,5-dihydro-1H-1,2,4-triazol-3-yl]acetamide]: 2.9 nM; `COc1cccc(-c2nc(-c3ccc(CCN4CCOCC4)cn3)nn2CC(=O)NC(C)(C)C)c1` [Example B-14, N-tert-butyl-2-[5-(3-methoxyphenyl)-3-{5-[2-(morpholin-4-yl)ethyl]pyridin-2-yl}-1H-1,2,4-triazol-1-yl]acetamide]: 6.6 nM.
As to `CC(C)(C)NC(=O)Cn1nc(-c2ccc(CCN3C4CCC3COC4)cn2)nc1-c1cccc(Cl)c1` [Example B-09, N-tert-butyl-2-[5-(3-chlorophenyl)-3-{5-[2-(3-oxa-8-azabicyclo[3.2.1]oct-8-yl)ethyl]pyridin-2-yl}-1H-1,2,4-triazol-1-yl]acetamide], the concentration for half-maximal inhibition (IC50) came to 2.2 nM. Compared with the last compound, the IC50 is about 3-fold lower.
As to `COc1cc(-c2nc(-c3ccc(CCN4CCC(C#N)CC4)cc3)cn2CC(=O)NC(C)C)ccc1F` [Example A-14, 2-[4-{4-[2-(4-cyanopiperidin-1-yl)ethyl]phenyl}-2-(4-fluoro-3-methoxyphenyl)-1H-imidazol-1-yl]-N-(propan-2-yl)acetamide], the IC50 is 100 to 1000 nM.
The compound `COc1cc(-c2nc(-c3ccc(CCN4CC(F)C4)cc3)cn2CC(=O)NC(C)C)ccc1F` [Example A-19, 2-[4-{4-[2-(3-fluoroazetidin-1-yl)ethyl]phenyl}-2-(4-fluoro-3-methoxyphenyl)-1H-imidazol-1-yl]-N-(propan-2-yl)acetamide] gave a half-inhibitory concentration (IC50) of 10 to 100 nM.
Regarding `CC(C)NC(=O)Cc1nn(-c2ccc(CCN3CCC(C(F)(F)F)CC3)cc2)c(=O)n1-c1cccc(Cl)c1` [Example D-59, 2-[4-(3-chlorophenyl)-5-oxo-1-(4-{2-[4-(trifluoromethyl)piperidin-1-yl]ethyl}phenyl)-4,5-dihydro-1H-1,2,4-triazol-3-yl]-N-(propan-2-yl)acetamide], the half-inhibitory concentration (IC50) is 100 to 1000 nM.
Next, `COc1cccc(-c2nc(-c3ccc(CCN4CCOCC4C)cc3)nn2CC(=O)NC(C)C)c1` (stereo not shown) [Example B-30, 2-[5-(3-methoxyphenyl)-3-{4-[2-(3-methylmorpholin-4-yl)ethyl]phenyl}-1H-1,2,4-triazol-1-yl]-N-(propan-2-yl)acetamide]: 10 to 100 nM; `CC(C)NC(=O)Cn1cc(-c2ccc(CCN3CCOCC3)nc2)nc1-c1cccc(Cl)c1` [Example A-30, 2-[2-(3-chlorophenyl)-4-{6-[2-(morpholin-4-yl)ethyl]pyridin-3-yl}-1H-imidazol-1-yl]-N-(propan-2-yl)acetamide]: 21 nM.
Regarding `COC1CCCN(CCc2ccc(-n3nc(CC(=O)NC(C)C)n(-c4cccc(Cl)c4)c3=O)cc2)C1` [Example D-50, 2-[4-(3-chlorophenyl)-1-{4-[2-(3-methoxypiperidin-1-yl)ethyl]phenyl}-5-oxo-4,5-dihydro-1H-1,2,4-triazol-3-yl]-N-(propan-2-yl)acetamide], the IC50 was in the range of 100 to 1000 nM.
For `COc1cccc(-c2nc(-c3ccc(CCN4CCCC(OC)C4)cc3)nn2CC(=O)NC(C)C)c1` (stereo not shown) [Example B-25, 2-[5-(3-methoxyphenyl)-3-{4-[2-(3-methoxypiperidin-1-yl)ethyl]phenyl}-1H-1,2,4-triazol-1-yl]-N-(propan-2-yl)acetamide], the concentration for half-maximal inhibition (IC50) was in the range of 10 to 100 nM.
Consider `COc1cccc(-c2nc(-c3ccc(CCN4CCC(C(F)(F)F)CC4)cc3)nn2CC(=O)NC(C)C)c1` [Example B-38, 2-[5-(3-methoxyphenyl)-3-(4-{2-[4-(trifluoromethyl)piperidin-1-yl]ethyl}phenyl)-1H-1,2,4-triazol-1-yl]-N-(propan-2-yl)acetamide], for which the IC50 fell in the range of 10 to 100 nM.
In turn, `CC(C)NC(=O)Cn1cc(C(=O)NC2CCC(N3CCOCC3)CC2)nc1-c1cccc(Cl)c1` (stereo not shown) [Example A-47, 2-(3-chlorophenyl)-N-[4-(morpholin-4-yl)cyclohexyl]-1-[2-oxo-2-(propan-2-ylamino)ethyl]-1H-imidazole-4-carboxamide] registered an IC50 of 100 to 1000 nM.
In the case of `COc1cc(-c2nc(-c3ccc(CCN4CCOCC4)cn3)nn2CC(=O)NC(C)C)ccc1F` [Example B-13, 2-[5-(4-fluoro-3-methoxyphenyl)-3-{5-[2-(morpholin-4-yl)ethyl]pyridin-2-yl}-1H-1,2,4-triazol-1-yl]-N-(propan-2-yl)acetamide], the half-inhibitory concentration (IC50) was determined as 8.9 nM.
`COc1cc(-c2nc(-c3ccc(CCN4CCOCC4)cc3)cn2CC(=O)NC(C)C)ccc1F` [Example A-10, 2-[2-(4-fluoro-3-methoxyphenyl)-4-{4-[2-(morpholin-4-yl)ethyl]phenyl}1H-imidazol-1-yl]-N-(propan-2-yl)acetamide] had an IC50 of 3.7 nM. Compared with the last compound, the IC50 is about 2.4-fold lower.
`CC(C)NC(=O)Cc1nc(-c2ccc(CCN3CCOCC3)cc2)nn1-c1cccc(Cl)c1` [Example C-21, 2-[1-(3-chlorophenyl)-3-{4-[2-(morpholin-4-yl)ethyl]phenyl}-1H-1,2,4-triazol-5-yl]-N-(propan-2-yl)acetamide] had an IC50 of 14 nM.
The compound `CC(C)NC(=O)Cc1nn(-c2ccc(CCN3CCCCC3)cc2)cc1-c1cccc(Cl)c1` [Example C-01, 2-[4-(3-chlorophenyl)-1-{4-[2-(piperidin-1-yl)ethyl]phenyl}-1H-pyrazol-3-yl]-N-(propan-2-yl)acetamide] came in with an IC50 of 21 nM. Against the preceding compound, the IC50 is about 1.5-fold higher.
Consider `COc1cccc(-n2c(CC(=O)NC(C)(C)C)nn(-c3ccc(CCN4CCOCC4)cn3)c2=O)c1` [Example D-08, N-tert-butyl-2-[4-(3-methoxyphenyl)-1-{5-[2-(morpholin-4-yl)ethyl]pyridin-2-yl}-5-oxo-4,5-dihydro-1H-1,2,4-triazol-3-yl]acetamide], for which the IC50 was 10 to 100 nM.
Next, `CC(C)NC(=O)Cc1nn(-c2ccc(CC(C)N3C4CCC3COC4)cn2)c(=O)n1-c1cccc(Cl)c1` [Example D-34, 2-[4-(3-chlorophenyl)-1-{5-[2-(3-oxa-8-azabicyclo[3.2.1]oct-8-yl)propyl]pyridin-2-yl}-5-oxo-4,5-dihydro-1H-1,2,4-triazol-3-yl]-N-(propan-2-yl)acetamide]: 3.3 nM; `COc1cccc(-c2nc(-c3ccc(CCN4CCOCC4)cc3)nn2CC(=O)NC(C)C)c1` [Example B-16, 2-[5-(3-methoxyphenyl)-3-{4-[2-(morpholin-4-yl)ethyl]phenyl}-1H-1,2,4-triazol-1-yl]-N-(propan-2-yl)acetamide]: 5.3 nM.

The values above are taken from patent US9522914B2, “Azole derivative” (TAISHO PHARMACEUTICAL CO., LTD, priority 2011, dated 2016).
